Data on ten substances can be found in US8372967B2, “Compounds and methods for modulating expression of GCCR” (Isis Pharmaceuticals, Inc., priority 2006, dated 2013).

Strand notation (5' to 3'): a small letter for the sugar, then the base; units joined by * are phosphorothioate-linked, units joined directly phosphodiester-linked; [ ] holds rarer units or linkages, { } end groups; capitals alone tell only the bases. e = 2'-O-(2-methoxyethyl) (MOE); [5mC] = 5-methylcytosine; d = 2'-deoxy (DNA)

In series [1] the test system is ApoB mRNA. The series can be described thus: ApoB mRNA level in liver, Balb/c mice dosed i.p. twice per week for three weeks (Table 29); EC50 in liver. The series is classed as in vivo, mouse. The settings on record: Table 30, Balb/c mice, 2.4 μmol/kg. The protocol: Prior to quantitative PCR analysis, primer-probe sets specific to the target gene being measured were evaluated for their ability to be “multiplexed” with a GAPDH amplification reaction. After isolation the RNA is subjected to sequential reverse transcriptase (RT) reaction and real-time PCR, both of which are performed in the same well. RT and PCR reagents were obtained from Invitrogen Life Technologies (Carlsbad, Calif.). […] The RT reaction was carried out by incubation for 30 minutes at 48° C. Following a 10 minute incubation at 95° C. to activate the PLATIN 9M® Taq, 40 cycles of a two-step PCR protocol were carried out: 95° C. for 15 seconds (denaturation) followed by 60° C. for 1.5 minutes (annealing/extension).
170 μL of RiboGreen® working reagent (RiboGreen® reagent diluted 1:350 in 10 mM Tris-HCl, 1 mM EDTA, pH 7.5) was pipetted into a 96-well plate containing 30 μL purified cellular RNA. The plate was read in a CytoFluor® 4000 (PE Applied Biosystems) with excitation at 485 nm and emission at 530 nm.
(§1) Antisense compound doses included 2.4, 1.2, 0.6, 0.3 and 0.15 μmol/kg. For antisense compounds 14 nucleotides in length, these doses equate to approximately 12, 6, 3, 1.5 or 0.75 mg/kg, respectively. Shown in Table 25 are the sequences and motifs of the antisense compounds used in this study. […] Bolded residues indicate 2′-O-methoxyethyl moieties and italicized residues indicate methyleneoxy (4′-CH2—O-2′) BNAs. The internucleoside linkages of each compound are phosphorothioate throughout. All cytosine residues of ISIS 147764 and ISIS 372938 are replaced by 5-methyl cytosines. For ISIS 387462, only the cytosine residue in the wing of the compound is replaced by 5-methyl cytosine. ApoB antisense compounds are targeted to publicly available ApoB-100 sequences, including Genbank Accession No. XM—137955.5 (SEQ ID NO: 2).
(§2) Forty-eight hours following the final injection, mice were sacrificed to evaluate transaminases (Table 26); liver and kidney weight (Table 27); triglyceride, LDL, HDL and free fatty acid levels (Table 28); target mRNA level in liver (Table 29); target protein level in plasma; and oligonucleotide tissue concentration (Table 30). These endpoints were determined using methods described herein and well known to those of ordinary skill in the art.
The EC50 for ISIS 387462 in the liver was determined by comparing oligonucleotide concentration in the liver to inhibition of ApoB mRNA.

Series [2] is described as follows: ALT and AST levels and adverse side effects, ApoB study (Table 26). The settings on record: Balb/c mice, i.p. twice per week for three weeks, 2.4 μmol/kg, 48 h after final injection. The series is classed as in vivo, mouse. Here is the method:
as §1, §2

The subject of the next series is GCGR mRNA. As to the kind of experiment: Antisense inhibition of GCGR in HepG2 cells (Table 79). The series is classed as cell-based, human. The following applies: for percent reduction in GCGR mRNA: HepG2 cells, relative to untreated control cells. Here is the method: Short antisense compounds targeted to a GCGR nucleic acid were tested for their effects on GCGR mRNA in vitro.
Cultured HepG2 cells at a density of 10000 cells per well in a 96-well plate were treated as described herein with 25, 50, 100 or 200 nM of antisense oligonucleotide. After the treatment period, RNA was isolated from the cells and GCGR mRNA levels were measured by quantitative real-time PCR, as described herein. GCGR mRNA levels were adjusted according to total RNA content as measured by RIBOGREEN®. Results are presented as percent reduction in GCGR mRNA, relative to untreated control cells.

Another series deals with monkey GCGR mRNA. As to the kind of experiment: Antisense inhibition of GCGR in primary monkey hepatocytes (Table 80). The series is classed as cell-based. The settings on record: relative to untreated control cells. Here is the method: Additional short antisense compounds targeted to a GCGR nucleic acid were tested for their effects on monkey GCGR mRNA in vitro. Cultured primary monkey hepatocytes were treated as described herein with 25, 50, 100 or 200 nM of short antisense compound. After the treatment period, RNA was isolated from the cells and GCGR mRNA levels were measured by quantitative real-time PCR, as described herein. GCGR mRNA levels were adjusted according to total RNA content as measured by RIBOGREEN®. Results are presented in Table 80 as percent reduction in GCGR mRNA, relative to untreated control cells.

Series [3] has as its system ApoB mRNA. The series can be described thus: ApoB mRNA in liver, Balb/c mice, BNA short antisense compounds twice per week for three weeks (Table 89). The series is classed as in vivo, mouse. The settings on record: relative to saline. Here is the method:
The short antisense compounds shown in Table 88 were tested for their effects in vivo. […] A 5-10-5 MOE gapmer was used for a control treatment. Mice were sacrificed approximately 48 hours following the final dose. Liver tissue was collected for RNA isolation, and blood was collected for serum chemistry analyses. ApoB mRNA levels were measured by real-time PCR as described herein. ApoB mRNA levels were normalized to RNA levels as determined by RIBOGREEN, and are presented in Table 89 as percent inhibition relative to ApoB mRNA levels in saline-treated control animals.

Series [4] has as its system ApoB mRNA. The series can be described thus: ApoB mRNA in liver and ED50, single dose of BNA short antisense compounds (Table 92). The series is classed as in vivo, mouse. The following applies: ApoB mRNA in liver; for % Inhib: Balb/c mice, relative to saline. The protocol: The short antisense compounds tested were ISIS 387462 and ISIS 398296. Each dose group consisted of four animals. A 5-10-5 MOE gapmer was used for a control treatment. Mice were sacrificed approximately 48 hours following the final dose. Liver tissue was collected for RNA isolation, and blood was collected for serum chemistry analyses. ApoB mRNA levels were measured by real-time PCR as described herein. ApoB mRNA levels were normalized to RNA levels as determined by RIBOGREEN, and are presented in Table 92 as percent inhibition relative to ApoB mRNA levels in saline-treated control animals.
At the 8 umol/kg dose, ApoB inhibition by the short antisense compounds was greater than observed with a 5-10-5 MOE gapmer at an equivalent dose. […] Triglycerides were reduced at the highest dose.

In series [5] the test system is PTP1B mRNA. The series can be described thus: Antisense inhibition of human PTP1B in HuVEC cells, 3 nM (Table 84). The series is classed as cell-based. The protocol: Short antisense compounds targeted to a PTP1B nucleic acid were tested for their effects on PTP1B mRNA in vitro. Cultured HuVEC cells at a density of 5000 cells per well in a 96-well plate were treated as described herein with 3 nM of short antisense compound. After the treatment period, RNA was isolated from the cells and PTP1B mRNA levels were measured by quantitative real-time PCR, as described herein. PTP1B mRNA levels were adjusted according to total RNA content as measured by RIBOGREEN®. Results are presented as percent inhibition of PTP1B (% Inhib), relative to untreated control cells.

The subject of series [6] is PTP1B mRNA. The series can be described thus: Antisense inhibition of human PTP1B in HepG2 cells, 25 nM (Table 85). Format: cell-based. Here is the method: Short antisense compounds targeted to a PTP1B nucleic acid were tested for their effects on PTP1B mRNA in vitro. Cultured HepG2 cells at a density of 10000 cells per well in a 96-well plate were treated with 25 nM of antisense oligonucleotide. After the treatment period, RNA was isolated from the cells and PTP1B mRNA levels were measured by quantitative real-time PCR, as described herein. PTP1B mRNA levels were adjusted according to total RNA content as measured by RIBOGREEN®. Results are presented as percent inhibition (% Ihib) of PTP1B, relative to untreated control cells.

For series [7], the system named is PTP1B mRNA. The series can be described thus: Dose response for human PTP1B in HuVEC cells, PPS 198 and PPS 3000 (Tables 86, 87). Format: cell-based. The protocol:
Human vascular endothelial (HuVEC) cells were plated at a density of 5000 cells per well and treated as described herein with nM concentrations of short antisense compound as indicated in Table 86. After the treatment period, RNA was isolated from the cells and PTP1B mRNA levels were measured by quantitative real-time PCR, as described herein. PTP1B mRNA levels were adjusted according to total RNA content as measured by RIBOGREEN®. Two different human PTP1B primer probe sets were used to measure mRNA levels. Results with Primer Probe Set (PPS) 198 are shown in Table 86, and results with Primer Probe Set (PPS) 3000 are shown in Table 87. Results are presented as percent inhibition of PTP1B mRNA expression relative to untreated control cells.

For the substance “147764 (antisense eG*eT*e[5mC]*e[5mC]*e[5mC]*dT*dG*dA*dA*dG*dA*dT*dG*dT*d[5mC]*eA*eA*eT*eG*e[5mC]) [compound 147764]”, the “ApoB mRNA level” value with ApoB mRNA [1] is reported as 58 % of saline control. This substance had an AST in series [2] of 64.0 IU/L.
Consider “327161 (antisense eA*eG*e[5mC]*dT*dG*d[5mC]*dT*dG*dT*dA*d[5mC]*eA*eT*e[5mC]) [compound 327161]”, for which the “percent reduction in GCGR mRNA” value was −36% in the series with GCGR mRNA (25 nM); −30% in the series with GCGR mRNA (50 nM); −33% in the series with GCGR mRNA (100 nM); −64% in the series with GCGR mRNA (200 nM); −19% in the series on monkey GCGR mRNA (25 nM); −33% with monkey GCGR mRNA (50 nM). The “percent reduction in GCGR mRNA” value in the series on monkey GCGR mRNA (100 nM) is recorded as −55%; with monkey GCGR mRNA (200 nM), −54%.
With “398296 (GGTACATGGAAGTC; 2-10-2 (6'S)-6'-methyl BNA gapmer, chemistry not fully specified) [compound 398296]”, the “% Inhib” value in the series with ApoB mRNA [3] (i.p. 0.1 umol/kg twice per week for three weeks) came out at 17%; in the series on ApoB mRNA [3] (i.p. 0.32 umol/kg twice per week for three weeks), 35%; in the series on ApoB mRNA [3] (i.p. 1 umol/kg twice per week for three weeks) it was 80%; in the series with ApoB mRNA [3] (i.p. 3.2 umol/kg twice per week for three weeks), 98%; in the series with ApoB mRNA [4] (single i.p. injection 1 umol/kg), 19%; in the series on ApoB mRNA [4] (single i.p. injection 2 umol/kg), 54%. The “% Inhib” value is reported as 81% in the series on ApoB mRNA [4] (single i.p. injection 4 umol/kg) and 97% in the series with ApoB mRNA [4] (single i.p. injection 8 umol/kg).
Regarding “399301 (GTGTGCACACAGCT; all C 5-methyl, all phosphorothioate, sugars by position not given here; further chemistry not fully specified) [compound 399301]”, the “% Inhib” value worked out at 55% in the series on PTP1B mRNA [5] and 43% in the series on PTP1B mRNA [6]. Further, the “% Inhibition” value with PTP1B mRNA [7] (PPS 198, 1.11 nM) was 8%; with PTP1B mRNA [7] (PPS 198, 3.33 nM), 63%; in the series on PTP1B mRNA [7] (PPS 198, 10.0 nM), 91%; in the series with PTP1B mRNA [7] (PPS 198, 30.0 nM), 97%; in the series on PTP1B mRNA [7] (PPS 3000, 1.11 nM) it was 16%; in the series with PTP1B mRNA [7] (PPS 3000, 3.33 nM) it was 65%. The “% Inhibition” value is recorded as 93% in the series on PTP1B mRNA [7] (PPS 3000, 10.0 nM) and 99% in the series on PTP1B mRNA [7] (PPS 3000, 30.0 nM).
Turning to “404137 (antisense e[5mC]*eA*dG*dT*dG*dT*dG*d[5mC]*dA*d[5mC]*dA*d[5mC]*eA*eG) [compound 404137]”, the “% Inhib” value with PTP1B mRNA [5] is on record as 76%; in the series on PTP1B mRNA [6] it was 71%.
In the case of “404138 (antisense e[5mC]*eT*d[5mC]*dA*dG*dT*dG*dT*dG*d[5mC]*dA*d[5mC]*eA*e[5mC]) [compound 404138]”, the “% Inhib” value is listed as 76% with PTP1B mRNA [5] and 86% with PTP1B mRNA [6].
In the same order, the values of “404139 (eG*eT*dG*d[5mC]*dA*d[5mC]*dA*d[5mC]*dA*dG*d[5mC]*dT*eG*eA) [compound 404139]” are 80% and 45%.
The like results for “404140 (eG*e[5mC]*dA*d[5mC]*dA*d[5mC]*dA*dG*d[5mC]*dT*dG*dA*eG*eG) [compound 404140]” were, in that order, 73% and 93%.
“ISIS 327161: 3-10-3 MOE gapmer targeted to GCGR (eA*eG*e[5mC]*dT*dG*d[5mC]*dT*dG*dT*dA*d[5mC]*eA*eT*e[5mC])”: the “GCGR mRNA” value in the series on GCGR mRNA (HepG2, 25, 50, 100 or 200 nM) is reported as “reduced GCGR mRNA in a dose-dependent manner”.
Take “ISIS 398296: GGTACATGGAAGTC 2-10-2 (6′S)-6′-methyl-Methyleneoxy BNA, Unmodified Cytosines, ApoB (2-10-2 6'-(S)-methyl BNA gapmer, chemistry not fully specified)”: the ED50 in the series on ApoB mRNA [4] (single i.p. injection) turned out to be 8.7 mg/kg.

Broadly, the % Inhibition is the share of the control response that was lost under treatment. Usually ED50 stands for the dose that gives a 50% effect, or the effect in half of the subjects.
